# Laboratory results reported in ChEMBL document CHEMBL1125844, “Novel non-nucleoside inhibitors of HIV-1 reverse transcriptase. 1. Tricyclic pyridobenzo- and dipyridodiazepinones” (J Med Chem, 1991).
# Legend:
# [1] = target: Human immunodeficiency virus type 1 reverse transcriptase (Human immunodeficiency virus 1) (UniProt Q72547); assay: In vitro inhibitory activity of compound against human immunodeficiency virus type 1 (HIV-1) rReverse transcriptase at a concentration of 10 ug/mL.
# [2] = target: T1, Human immunodeficiency virus type 1 reverse transcriptase (Human immunodeficiency virus 1, UniProt Q72547); assay: In vitro inhibitory activity of compound against human immunodeficiency virus type 1 (HIV-1) Reverse transcriptase
# [3] = test system: T-cell line; assay: In vitro cytotoxicity in CD4+ human T-cells (c8166), […]; assay type: functional
# [4] = target: T1, Human immunodeficiency virus type 1 reverse transcriptase; assay: In vitro inhibitory activity against human immunodeficiency virus type 1 (HIV-1) reverse transcriptase (RT)
# [5] = target: Human immunodeficiency virus type 1 reverse transcriptase (Human immunodeficiency virus 1) (UniProt Q72547); assay: In vitro inhibitory activity of compound against human immunodeficiency virus type 1 (HIV-1) Reverse transcriptase at a concentration of 10 ug/mL.
# [6] = target: Human immunodeficiency virus type 1 reverse transcriptase (Human immunodeficiency virus 1) (UniProt Q72547); assay: In vitro inhibitory activity against human immunodeficiency virus type 1 (HIV-1) reverse transcriptase (RT) at a concentration of 10 ug/mL.
SMILES,IC50 [4] [µM],inhibition [6] [%],also measured
CCN1C(=O)c2ccccc2N(C)c2nc(Cl)ccc21,–,–,inhibition [1]: 76%; IC50 [2]: 3.3 µM
Cc1cn([C@H]2C[C@H](N=[N+]=[N-])[C@@H](CO)O2)c(=O)[nH]c1=O [ZIDOVUDINE],0.006,–,CC50 [3]: 66 µM
CCN1c2ncccc2C(=O)N(C)c2ccc(Cl)nc21,–,–,IC50 [2]: 0.15 µM; inhibition [5]: 100%
CCN1c2ncccc2C(=O)N(C)c2cc(Cl)c([N+](=O)[O-])nc21,–,–,IC50 [2]: > 1 µM; inhibition [5]: 98%
CCN1c2ncccc2C(=O)Nc2c(Cl)ccnc21,0.095,100,–
CCN1c2ncccc2C(=O)N(C(C)=O)c2cccnc21,0.36,99,–
CCN1c2ncccc2C(=O)N(C)c2cc(C)c(C)nc21,0.24,100,–
CCN1c2ccc(C)cc2C(=O)N(C)c2cccnc21,0.58,99,–
CCN1c2cc(Cl)ccc2N(C)C(=O)c2cccnc21,0.17,100,–
CCN1c2cccc(C)c2N(C)C(=O)c2cccnc21,0.24,100,–
CC(=O)N1c2cc(C)c(C)cc2N(C)C(=O)c2cccnc21,0.42,96,–
CCN1c2cc(C(F)(F)F)ccc2N(C)C(=O)c2cccnc21,0.23,97,–
CCN(CC)C(=O)c1ccc2c(c1)N(C)C(=O)c1cccnc1N2CC,> 1,11,–
CCN1c2cc([N+](=O)[O-])ccc2N(C)C(=O)c2cccnc21,0.4,99,–
CCN1c2ncccc2C(=O)N(C)c2ccc(C)nc21,0.17,100,–
CCN1c2cc(N)ccc2N(C)C(=O)c2cccnc21,4.5,89,–

SMILES,IC50 [4] [µM],inhibition [6] [%],also measured
CCOC(=O)CN1c2ccccc2N(C)C(=O)c2cccnc21,16,56,–
CCc1ccnc2c1NC(=O)c1cccnc1N2CC,0.11,100,–
CCN1c2nc(C)c(C)cc2NC(=O)c2cccnc21,0.41,100,–
CCN1c2ccc(C)cc2N(C)C(=O)c2cccnc21,0.19,100,–
CCN1c2ccccc2N(C)C(=O)c2cc(C(F)(F)C(F)(F)F)cnc21,> 1,5,–
CCN1c2ccc(C(N)=O)cc2N(C)C(=O)c2cccnc21,27,66,–
C=CCN1c2ncccc2C(=O)N(C)c2cccnc21,0.85,99,–
CCN1c2ncccc2NC(=O)c2c(C)ccnc21,> 1,80,–
CCN1c2cc([N+](=O)[O-])ccc2N(C)C(=O)c2cc(Br)cnc21,0.89,95,–
CCN1c2cc(C(F)(F)F)cc(Cl)c2N(C)C(=O)c2cccnc21,0.29,96,–
O=C1Nc2cccnc2N(C2CC2)c2ncccc21,0.45,99,–
Cc1ccc2c(n1)Nc1ccccc1C(=O)N2,> 1,46,–
CN1C(=O)c2cccnc2N(S(C)(=O)=O)c2ncccc21,> 1,77,–
O=C1Nc2cccnc2N(C2CCCC2)c2ncccc21,> 1,94,–
Cc1ccnc2c1NC(=O)c1c(O)ccnc1N2C1CC1,> 1,96,–
CCN1c2ccc(C)c(C)c2N(C)C(=O)c2cccnc21,0.036,99,–

# The next lines start with results.
IC50 [4] [µM],inhibition [6] [%],SMILES,also measured
6.6,84,CSCN1c2ccccc2N(C)C(=O)c2cccnc21,–
> 1,99,CCN1c2ncccc2C(=O)N(C)c2cc(Cl)cnc21,–
> 1,78,CCN1c2ccc(CO)cc2N(C)C(=O)c2cccnc21,–
> 1,52,CN1C(=O)c2ccccc2N(C)c2ccccc21,–
11,87,CN1C(=O)c2cccnc2N(C(C)(C)C)c2ncccc21,–
1.25,96,N#Cc1ccnc2c1NC(=O)c1cccnc1N2C1CC1,–
> 1,84,CCN1c2ccc(CN)cc2N(C)C(=O)c2cccnc21,–
> 1,96,Cc1ccnc2c1N(C)C(=O)c1cccnc1N2C1CC1,–
> 1,56,CCN1c2ccc([N+](=O)[O-])cc2N(C)C(=O)c2cccnc21,–
1.1,94,CCN1c2ccc(C(=O)OC)cc2N(C)C(=O)c2cccnc21,–
> 1,89,CCN1c2ncccc2NC(=O)c2cc(C)cnc21,–
> 1,47,CCN1c2ccc(O)cc2N(C)C(=O)c2cccnc21,–
8,90,CCN1C(=O)c2cccnc2N(CC)c2cccc(C)c21,–
> 1,49,CCN1c2cc(NC(C)=O)ccc2N(C)C(=O)c2cccnc21,–
> 1,49,Cc1ccc2c(c1)N(C)C(=O)c1c(C)cc(C)nc1N2C,–
1.4,96,C=CCN1C(=O)c2cccnc2Nc2ccccc21,–
> 1,71,CCN1c2cc(C(F)(F)F)cc(Br)c2N(C)C(=O)c2cccnc21,–
> 1,24,CN(C)C(=O)CN1C(=O)c2cccnc2Nc2ccccc21,–
> 1,92,CCN1c2ncccc2C(=O)N(C)c2cc(N)cnc21,–
1.9,98,CCN1c2ncccc2C(=O)N(C)c2c(C)ccnc21,–
